The nature of this series: Purity of everolimus in ethanol solution. The format is physicochemical. The following applies: dissolved in ethanol, 3 hours/25° C. The protocol: However, since an aqueous solution of a coating agent needs to be used in order to prepare such a film-coated tablet, the aforementioned method cannot be applied to drugs having low chemical stability against aqueous solvents. […] For example, everolimus as a rapamycin derivative has physical properties, by which when it is dissolved in ethanol to prepare an ethanol solution thereof, its purity is decreased by 4% or more under conditions of 3 hours/25° C. As such, it is not preferable that a film coating technique involving the use of an aqueous solvent be applied, as a pharmaceutical formulation of light-resistant preparations, to a pharmaceutical product tablet comprising, as an active ingredient, rapamycin and a derivative thereof.

Molecules are shown by their SMILES.

Turning to `CO[C@H]1C[C@@H]2CC[C@@H](C)[C@@](O)(O2)C(=O)C(=O)N2CCCC[C@H]2C(=O)O[C@H]([C@H](C)C[C@@H]2CC[C@@H](OCCO)[C@H](OC)C2)CC(=O)[C@H](C)/C=C(\C)[C@@H](O)[C@@H](OC)C(=O)[C@H](C)C[C@H](C)/C=C/C=C/C=C/1C` [everolimus, 40-O-(2-hydroxyethyl)rapamycin], the “decrease in purity in ethanol solution” value is recorded as at least 4%.

The values above are taken from patent publication US20190290631A1, “PHARMACEUTICAL COMPOSITION COMPRISING RAPAMYCIN OR DERIVATIVE THEREOF” (NIPPON KAYAKU KABUSHIKI KAISHA, priority 2016, published 2019).
